Values quoted from earlier work as cited in US20260021104A1, “BRILAROXAZINE LIPOSOME COMPOSITION” (Reviva Pharmaceuticals, Inc., priority 2023, published 2026).

How the values were obtained:
5-HT1A receptors = target: T1, 5-HT1A receptors (Homo sapiens, UniProt P08908); details: partial agonist
T1 sequence (P08908 1-422): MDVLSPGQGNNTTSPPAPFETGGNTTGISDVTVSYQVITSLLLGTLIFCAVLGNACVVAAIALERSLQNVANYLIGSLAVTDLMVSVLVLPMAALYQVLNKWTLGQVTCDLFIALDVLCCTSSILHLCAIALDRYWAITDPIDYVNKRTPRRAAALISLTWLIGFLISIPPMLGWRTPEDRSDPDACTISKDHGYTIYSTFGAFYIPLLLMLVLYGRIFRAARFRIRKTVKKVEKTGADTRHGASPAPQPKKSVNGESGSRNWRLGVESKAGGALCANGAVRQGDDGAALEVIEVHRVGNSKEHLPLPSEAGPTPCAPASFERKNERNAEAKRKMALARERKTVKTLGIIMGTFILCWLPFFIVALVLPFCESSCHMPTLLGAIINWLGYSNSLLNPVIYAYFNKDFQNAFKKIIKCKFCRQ

5-HT2A = 5-HT2A (Homo sapiens, UniProt P28223); details: weak partial agonist or neutral antagonist
D2-4 receptors = details: partial agonist
[1] = target: serotonin transporter (SERT) (Homo sapiens, UniProt P31645)
5-HT2B/7 = details: antagonist

Sequence of serotonin transporter (SERT) (P31645 whole entry, species assumed): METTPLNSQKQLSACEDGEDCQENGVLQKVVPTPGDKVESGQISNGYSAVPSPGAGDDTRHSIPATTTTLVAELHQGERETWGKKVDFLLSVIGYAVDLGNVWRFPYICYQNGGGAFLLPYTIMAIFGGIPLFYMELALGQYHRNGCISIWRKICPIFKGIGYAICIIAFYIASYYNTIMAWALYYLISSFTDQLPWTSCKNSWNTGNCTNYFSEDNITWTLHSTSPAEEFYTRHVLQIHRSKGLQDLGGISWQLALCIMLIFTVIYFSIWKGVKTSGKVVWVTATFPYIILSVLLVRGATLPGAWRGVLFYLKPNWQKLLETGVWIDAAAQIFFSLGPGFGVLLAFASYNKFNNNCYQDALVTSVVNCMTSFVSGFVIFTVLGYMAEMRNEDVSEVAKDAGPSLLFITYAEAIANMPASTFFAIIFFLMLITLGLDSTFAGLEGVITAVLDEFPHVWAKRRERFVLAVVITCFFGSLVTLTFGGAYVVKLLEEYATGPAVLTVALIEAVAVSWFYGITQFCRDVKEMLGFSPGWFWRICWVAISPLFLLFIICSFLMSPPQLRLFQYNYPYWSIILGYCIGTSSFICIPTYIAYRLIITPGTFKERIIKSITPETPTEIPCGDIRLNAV
Sequence of 5-HT2A (P28223 whole entry, species assumed): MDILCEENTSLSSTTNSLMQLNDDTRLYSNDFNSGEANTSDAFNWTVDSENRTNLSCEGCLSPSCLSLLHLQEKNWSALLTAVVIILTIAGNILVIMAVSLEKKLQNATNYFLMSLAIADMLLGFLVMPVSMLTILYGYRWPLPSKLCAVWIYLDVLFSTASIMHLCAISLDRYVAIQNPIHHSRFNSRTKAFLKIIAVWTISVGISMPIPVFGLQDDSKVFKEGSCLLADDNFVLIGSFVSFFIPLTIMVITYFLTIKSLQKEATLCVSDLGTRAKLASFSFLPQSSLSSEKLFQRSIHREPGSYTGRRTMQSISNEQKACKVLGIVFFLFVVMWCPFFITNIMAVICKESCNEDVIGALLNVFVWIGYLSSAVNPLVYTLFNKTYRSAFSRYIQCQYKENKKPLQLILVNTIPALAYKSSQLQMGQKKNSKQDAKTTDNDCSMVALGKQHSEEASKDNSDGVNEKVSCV

binding affinity (5-HT1A receptors): high binding affinity
binding affinity (5-HT2A): high binding affinity
binding affinity (D2-4 receptors): high binding affinity
affinity [1]: moderate affinity
binding affinity (5-HT2B/7): high binding affinity
Compound: O=C1COc2ccc(OCCCCN3CCN(c4cccc(Cl)c4Cl)CC3)cc2N1 [Brilaroxazine]
